According to patent publication US8952024B2, “Herbicidal pyrimidone derivatives” (E I du Pont de Nemours and Company, priority 2009, dated 2015):

Key:
Type in all cases: in vivo
[1] = tested on: windgrass (Apera spica-venti); experiment: Test B postemergence plant response; details: Postemergence
Summary of the method: (§1)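 Plants at the 1- to 4-leaf stage (2 to 18 cm tall), grown in pots of peat moss/vermiculite medium with wetting agent and starter nutrients, received postemergence applications of test chemicals. After 13 to 15 days in a greenhouse, injury was rated visually against untreated controls on a 0 (no effect) to 100 (complete control) scale.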

[2] = tested on: chickweed (Stellaria media); experiment: Test B postemergence plant response; details: Postemergence
Summary of the method: as §1

[3] = tested on: canarygrass (Phalaris minor); experiment: Test B postemergence plant response; details: Postemergence
Summary of the method: as §1

[4] = tested on: pigweed (Amaranthus retroflexus); experiment: Test B pre-/postemergence plant response
Summary of the method: (§2)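 Seeds sown in loam–sand blend were treated preemergence, and plants at 2–18 cm (1- to 4-leaf stage) in peat-based medium were treated postemergence; compounds were formulated in non-phytotoxic solvent with surfactant. After 13–15 days in greenhouse, response was visually rated against controls, 0 (no effect) to 100 (complete control).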

wild oat (Avena fatua) = experiment: Test B pre-/postemergence plant response
Summary of the method: as §2

[5] = tested on: Surinam grass (Brachiaria decumbens); experiment: Test B pre-/postemergence plant response
Summary of the method: as §2

[6] = tested on: cocklebur (Xanthium strumarium); experiment: Test B pre-/postemergence plant response; details: Preemergence
Summary of the method: as §2

[7] = tested on: wheat (Triticum aestivum); experiment: Test B pre-/postemergence plant response
Summary of the method: as §2

[8] = tested on: velvetleaf (Abutilon theophrasti); experiment: Test B pre-/postemergence plant response
Summary of the method: as §2

kochia (Kochia scoparia) = experiment: Test B pre-/postemergence plant response; details: Postemergence
Summary of the method: as §2

[9] = tested on: lambsquarters (Chenopodium album); experiment: Test B pre-/postemergence plant response
Summary of the method: as §2

soybean (Glycine max) = experiment: Test B pre-/postemergence plant response
Summary of the method: as §2

[10] = tested on: blackgrass (Alopecurus myosuroides); experiment: Test B pre-/postemergence plant response
Summary of the method: as §2

[11] = 31 g ai/ha, 0 to 100 scale (0 no effect, 100 complete control)
[12] = 62 g ai/ha, scale 0 to 100 (0 no effect, 100 complete control)
[13] = 250 g ai/ha, scale 0 to 100 (0 no effect, 100 complete control), 13 to 15 days
[14] = 125 g ai/ha, scale 0 to 100 (0 no effect, 100 complete control)
[15] = Postemergence, 31 g ai/ha, 0 to 100 scale (0 no effect, 100 complete control)
[16] = Postemergence, 62 g ai/ha, scale 0 to 100 (0 no effect, 100 complete control)
[17] = Postemergence, 250 g ai/ha, scale 0 to 100 (0 no effect, 100 complete control), 13 to 15 days
[18] = Preemergence, 31 g ai/ha, scale 0 to 100 (0 no effect, 100 complete control)
[19] = Preemergence, 62 g ai/ha, scale 0 to 100 (0 no effect, 100 complete control)
[20] = Preemergence, 125 g ai/ha, scale 0 to 100, 0 no effect, 100 complete control
[21] = Preemergence, 250 g ai/ha, 0 to 100 scale
[22] = Postemergence, 125 g ai/ha, scale 0 to 100 (0 no effect, 100 complete control)

SMILES: COc1ccc(-n2c(-c3ccccc3)ncc(C(=O)C3=C(O)CCCC3=O)c2=O)cc1OC [Compound 218]
- Plant response rating, Windgrass [1, 11]: 10
- Plant response rating, Windgrass [1, 12]: 20
- Plant response rating, Windgrass [1, 13]: 45
- Plant response rating, Chickweed [2, 11]: 100
- Plant response rating, Chickweed [2, 12]: 100
- Plant response rating, Chickweed [2, 14]: 100
- Plant response rating, Chickweed [2, 13]: 100
- Plant response rating, Canarygrass [3, 11]: 0
- Plant response rating, Canarygrass [3, 12]: 0
- Plant response rating, Canarygrass [3, 14]: 0
- Plant response rating, Canarygrass [3, 13]: 5
- Plant response rating, Pigweed [4, 15]: 100
- Plant response rating, Pigweed [4, 16]: 100
- Plant response rating, Pigweed [4, 17]: 100
- Plant response rating, Pigweed [4, 18]: 100
- Plant response rating, Pigweed [4, 19]: 100
- Plant response rating, Pigweed [4, 20]: 100
- Pigweed plant response rating [4, 21]: 100
- Plant response rating, Oat, Wild (wild oat (Avena fatua); [15]): 40
- Plant response rating, Oat, Wild (wild oat (Avena fatua); [16]): 45
- Plant response rating, Oat, Wild (wild oat (Avena fatua); [17]): 60
- Plant response rating, Oat, Wild (wild oat (Avena fatua); [18]): 0
- Plant response rating, Oat, Wild (wild oat (Avena fatua); [19]): 0
- Plant response rating, Oat, Wild (wild oat (Avena fatua); [20]): 0
- Oat, Wild plant response rating (wild oat (Avena fatua); [21]): 0
- Plant response rating, Surinam Grass [5, 15]: 75
- Plant response rating, Surinam Grass [5, 16]: 80
- Plant response rating, Surinam Grass [5, 17]: 90
- Plant response rating, Surinam Grass [5, 18]: 10
- Plant response rating, Surinam Grass [5, 19]: 65
- Plant response rating, Surinam Grass [5, 20]: 98
- Surinam Grass plant response rating [5, 21]: 100
- Plant response rating, Cocklebur [6, 12]: 0
- Plant response rating, Cocklebur ([6]; 125 g ai/ha, scale 0 to 100, 0 no effect, 100 complete control): 90
- Cocklebur plant response rating ([6]; 250 g ai/ha, 0 to 100 scale): 100
- Plant response rating, Wheat [7, 15]: 0
- Plant response rating, Wheat [7, 16]: 0
- Plant response rating, Wheat [7, 17]: 0
- Plant response rating, Wheat [7, 18]: 0
- Plant response rating, Wheat [7, 19]: 0
- Plant response rating, Wheat [7, 20]: 0
- Wheat plant response rating [7, 21]: 0
- Plant response rating, Velvetleaf [8, 15]: 85
- Plant response rating, Velvetleaf [8, 16]: 100
- Plant response rating, Velvetleaf [8, 17]: 100
- Plant response rating, Velvetleaf [8, 18]: 80
- Plant response rating, Velvetleaf [8, 19]: 85
- Plant response rating, Velvetleaf [8, 20]: 90
- Velvetleaf plant response rating [8, 21]: 100
- Plant response rating, Kochia (kochia (Kochia scoparia); [11]): 35
- Plant response rating, Kochia (kochia (Kochia scoparia); [12]): 85
- Plant response rating, Kochia (kochia (Kochia scoparia); [14]): 100
- Plant response rating, Kochia (kochia (Kochia scoparia); [13]): 100
- Plant response rating, Lambsquarters [9, 15]: 98
- Plant response rating, Lambsquarters [9, 16]: 98
- Plant response rating, Lambsquarters [9, 22]: 100
- Plant response rating, Lambsquarters [9, 17]: 100
- Plant response rating, Lambsquarters [9, 18]: 100
- Plant response rating, Lambsquarters [9, 19]: 100
- Plant response rating, Lambsquarters [9, 20]: 100
- Lambsquarters plant response rating [9, 21]: 100
- Plant response rating, Soybean (soybean (Glycine max); [15]): 85
- Plant response rating, Soybean (soybean (Glycine max); [16]): 100
- Plant response rating, Soybean (soybean (Glycine max); [17]): 100
- Plant response rating, Soybean (soybean (Glycine max); [18]): 0
- Plant response rating, Soybean (soybean (Glycine max); [19]): 65
- Plant response rating, Soybean (soybean (Glycine max); [20]): 80
- Soybean plant response rating (soybean (Glycine max); [21]): 90
- Plant response rating, Blackgrass [10, 15]: 0
- Plant response rating, Blackgrass [10, 16]: 0
- Plant response rating, Blackgrass [10, 22]: 5
- Plant response rating, Blackgrass [10, 17]: 5
- Plant response rating, Blackgrass [10, 18]: 0
- Plant response rating, Blackgrass [10, 19]: 0
- Plant response rating, Blackgrass [10, 20]: 0
- Blackgrass plant response rating [10, 21]: 20
